Measurements reported in publication PMC8875392, “Design and Characterization of Myristoylated and Non-Myristoylated Peptides Effective against Candida spp. Clinical Isolates” (International Journal of Molecular Sciences, 2022).
Converted amounts (≈) assume the structure as drawn. Where two headings read alike, the source gives them in different places. Where a SMILES comes first, the peptide text is derived from it. The star is where a group is joined. Myristoyl = CCCCCCCCCCCCCC(=O)*

Tests used:
[1] = tested on: C. auris clinical isolates; type: cell-based, Candida auris; settings: for MIC: CLSI broth microdilution, RPMI 1640
Procedure: (§1) The antifungal activity of AMPs was determined against 50 clinical isolates, 10 for each of the following Candida species: C. albicans, C. tropicalis, C. glabrata, C. parapsilosis, and C. auris. The latter were derived from patients with positive blood cultures in four hospitals in India, with known resistance profiles to fluconazole, voriconazole, and echinocandins. Yeast cells were grown in Brain Heart Infusion (BHI) medium (Sigma-Aldrich, Gillingham, UK) for 16 h at 37 °C in a 150-rpm orbital shaker. Cells were then sub-inoculated in a fresh BHI medium and grown to an optical density (OD) of 0.3. The turbidity of the inoculum was adjusted to 0.5 McFarland and diluted 1:500 in RPMI 1640 broth, corresponding to around […].
(§2) Minimal inhibitory concentrations (MICs) were determined by Broth microdilution susceptibility tests, according to The Clinical and Laboratory Standards Institute (CLSI) international guidelines. A fungal suspension of 0.5 MacFarland was diluted 1:500 in RPMI 1640 broth and incubated in 96 multi-well plates containing AMPs at different concentrations ranging from 0.125 to 256 μg/mL. In this range of concentration, lipopeptides were completely soluble. […] The MIC90 represents the value at which ≥90% of the strains within a test population were inhibited.

[2] = tested on: C. glabrata clinical isolates; type: cell-based, Candida glabrata; settings: 16 h
Procedure: as §1, §2

[3] = tested on: C. albicans clinical isolates; type: cell-based, Candida albicans; settings: 16 h
Procedure: as §1, §2

[4] = tested on: C. tropicalis clinical isolates; type: cell-based, Candida tropicalis; settings: for MIC90: clinical isolates, 16 h; for MIC: CLSI broth microdilution, RPMI 1640
Procedure: as §1, §2

[5] = Critical micellar concentration (CMC) determination with ANS fluorescent probe; type: physicochemical; settings: ANS fluorescence (70 μM ANS, λex 356 nm, emission 465 nm) in water, peptide 0.8–10.0 μM, 298 K, intersection of the two lines
Procedure: Lipopeptides usually self-assemble in organized structures that have attracted interest because of their enhanced bactericidal and fungicidal effects. The self-assembly of myristoylated peptides was evaluated by determining the critical micellar concentration (CMC) that represents the concentration of spontaneous associations of monomers by a spectrofluorometric method. 8-anilinonaphtalene-1-sulfonate (ANS) was used as a fluorescent probe since its fluorescence is very sensitive to the microenvironment, showing a blue shift and intensity increase upon changing from a polar to non-polar medium. Therefore, the fluorescence of ANS was monitored as a function of the lipopeptide concentration. […] Fluorescence intensity slowly increases up to a certain lipopeptide concentration and then breaks abruptly, indicating a sudden change in the aggregation state of lipopeptides. For each peptide, the critical micellar concentration (CMC) was evaluated by the intersection of the two lines. […] All the steady-state fluorescence measurements were carried out using a Perkin Elmer LS55 fluorescence spectrophotometer. All the experiments were conducted at 298 K in a thermostatic cell holder and in 20 mM phosphate buffer at pH 7.4 containing 0.8 mM EDTA and 150 mM NaCl unless otherwise specified. The CMC of the N-terminal myristoylated peptides was determined in water by fluorescence spectroscopy using 8-anilinonaphtalene-1-sulfonate (ANS) as the fluorescent probe. […] The ANS was excited at λex = 356 nm, and the fluorescence spectrum was measured for λem = 400–670 nm with excitation and emission bandwidths of 5 nm.

MIC ([1]; isolate Candida Auris 1) [µg/mL] | MIC ([1]; isolate Candida Auris 2) [µg/mL] | MIC ([1]; isolate Candida Auris 3) [µg/mL] | MIC ([1]; isolate Candida Auris 4) [µg/mL] | MIC ([1]; isolate Candida Auris 5) [µg/mL] | MIC ([1]; isolate Candida Auris 6) [µg/mL] | MIC ([1]; isolate Candida Auris 7) [µg/mL] | MIC ([1]; isolate Candida Auris 8) [µg/mL] | MIC ([1]; isolate Candida Auris 9) [µg/mL] | MIC ([1]; isolate Candida Auris 10) [µg/mL] | MIC90 [2] [µg/mL] | MIC90 [3] [µg/mL] | MIC90 [4] [µg/mL] | MIC ([4]; isolate Candida tropicalis 1) [µg/mL] | MIC ([4]; isolate Candida tropicalis 2) [µg/mL] | MIC ([4]; isolate Candida tropicalis 3) [µg/mL] | MIC ([4]; isolate Candida tropicalis 4) [µg/mL] | MIC ([4]; isolate Candida tropicalis 5) [µg/mL] | MIC ([4]; isolate Candida tropicalis 6) [µg/mL] | MIC ([4]; isolate Candida tropicalis 7) [µg/mL] | SMILES | also measured
> 256 | > 256 | > 256 | > 256 | > 256 | > 256 | > 256 | > 256 | > 256 | > 256 | 16 (≈ 10.1 µM) | 16 (≈ 10.1 µM) | 16 (≈ 10.1 µM) | 16 (≈ 10.1 µM) | 16 (≈ 10.1 µM) | 16 (≈ 10.1 µM) | 16 (≈ 10.1 µM) | 16 (≈ 10.1 µM) | 16 (≈ 10.1 µM) | 16 (≈ 10.1 µM) | CCCCCCCCCCCCCC(=O)N[C@@H](Cc1c[nH]c2ccccc12)C(=O)N[C@@H](Cc1ccccc1)C(=O)NCC(=O)N[C@@H](CCCCN)C(=O)N[C@@H](CC(C)C)C(=O)N[C@@H](Cc1ccc(O)cc1)C(=O)N[C@@H](CCCNC(=N)N)C(=O)NCC(=O)N[C@H](C(=O)N[C@H](C(=O)N[C@@H](CCCCN)C(=O)O)[C@@H](C)O)[C@@H](C)CC [Myr-A] (Myristoyl-WFGKLYRGITK-OH; C-terminus assumed) | MIC90 ([1]; clinical isolates, 16 h): >256 µg/mL; MIC [2]: 16 µg/mL (≈ 10.1 µM); MIC (Range) [3]: 8 to 16 µg/mL; MIC ([4]; isolate Candida tropicalis 8): 16 µg/mL (≈ 10.1 µM); MIC ([4]; isolate Candida tropicalis 9): 16 µg/mL (≈ 10.1 µM); MIC ([4]; isolate Candida tropicalis 10): 16 µg/mL (≈ 10.1 µM); critical micellar concentration (CMC) [5]: 4.7 ± 0.8 µM
16 (≈ 10.6 µM) | 16 (≈ 10.6 µM) | 32 (≈ 21.2 µM) | 32 (≈ 21.2 µM) | 64 (≈ 42.4 µM) | 32 (≈ 21.2 µM) | 32 (≈ 21.2 µM) | 32 (≈ 21.2 µM) | 16 (≈ 10.6 µM) | 32 (≈ 21.2 µM) | 32 (≈ 21.2 µM) | 32 (≈ 21.2 µM) | 16 (≈ 10.6 µM) | 16 (≈ 10.6 µM) | 16 (≈ 10.6 µM) | 16 (≈ 10.6 µM) | 16 (≈ 10.6 µM) | 16 (≈ 10.6 µM) | 16 (≈ 10.6 µM) | 16 (≈ 10.6 µM) | CCCCCCCCCCCCCC(=O)N[C@@H](Cc1c[nH]c2ccccc12)C(=O)N[C@H](C(=O)N[C@H](C(=O)N[C@@H](CCCCN)C(=O)N[C@@H](CCCCN)C(=O)N[C@H](C(=O)N[C@@H](CCCCN)C(=O)NCC(=O)N[C@@H](CC(C)C)C(=O)N[C@@H](CC(C)C)C(=O)N[C@@H](CCCCN)C(=O)O)C(C)C)C(C)C)C(C)C [Myr-C] (Myristoyl-WVVKKVKGLLK-OH; C-terminus assumed) | MIC [2]: 32 µg/mL (≈ 21.2 µM); MIC [3]: 32 µg/mL (≈ 21.2 µM); MIC ([4]; isolate Candida tropicalis 8): 16 µg/mL (≈ 10.6 µM); MIC ([4]; isolate Candida tropicalis 9): 16 µg/mL (≈ 10.6 µM); MIC ([4]; isolate Candida tropicalis 10): 16 µg/mL (≈ 10.6 µM); critical micellar concentration (CMC) [5]: 5.1 ± 0.4 µM

SMILES | MIC ([1]; isolate Candida Auris 1) [µg/mL] | MIC ([1]; isolate Candida Auris 2) [µg/mL] | MIC ([1]; isolate Candida Auris 3) [µg/mL] | MIC ([1]; isolate Candida Auris 4) [µg/mL] | MIC ([1]; isolate Candida Auris 5) [µg/mL] | MIC ([1]; isolate Candida Auris 6) [µg/mL] | MIC ([1]; isolate Candida Auris 7) [µg/mL] | MIC ([1]; isolate Candida Auris 8) [µg/mL] | MIC ([1]; isolate Candida Auris 9) [µg/mL] | MIC ([1]; isolate Candida Auris 10) [µg/mL] | MIC90 [2] [µg/mL] | MIC90 [3] [µg/mL] | MIC90 [4] [µg/mL] | MIC ([4]; isolate Candida tropicalis 1) [µg/mL] | MIC ([4]; isolate Candida tropicalis 2) [µg/mL] | MIC ([4]; isolate Candida tropicalis 3) [µg/mL] | MIC ([4]; isolate Candida tropicalis 4) [µg/mL] | MIC ([4]; isolate Candida tropicalis 5) [µg/mL] | MIC ([4]; isolate Candida tropicalis 6) [µg/mL] | MIC ([4]; isolate Candida tropicalis 7) [µg/mL] | also measured
CCCCCCCCCCCCCC(=O)N[C@@H](Cc1c[nH]c2ccccc12)C(=O)N[C@@H](CCCNC(=N)N)C(=O)NCC(=O)N[C@H](C(=O)N[C@H](C(=O)N[C@@H](CCCCN)C(=O)N[C@H](C(=O)N[C@H](C(=O)N[C@@H](CCCCN)C(=O)N[C@@H](CCCCN)C(=O)N[C@H](C(=O)O)C(C)C)C(C)C)C(C)C)[C@@H](C)O)[C@@H](C)CC [Myr-B] (Myristoyl-WRGITKVVKKV-OH; C-terminus assumed) | 8 (≈ 5.25 µM) | 8 (≈ 5.25 µM) | 16 (≈ 10.5 µM) | 32 (≈ 21 µM) | 32 (≈ 21 µM) | 16 (≈ 10.5 µM) | 16 (≈ 10.5 µM) | 16 (≈ 10.5 µM) | 32 (≈ 21 µM) | 32 (≈ 21 µM) | 32 (≈ 21 µM) | 16 (≈ 10.5 µM) | 8 (≈ 5.25 µM) | 8 (≈ 5.25 µM) | 8 (≈ 5.25 µM) | 8 (≈ 5.25 µM) | 8 (≈ 5.25 µM) | 8 (≈ 5.25 µM) | 8 (≈ 5.25 µM) | 8 (≈ 5.25 µM) | MIC90 ([1]; clinical isolates, 16 h): 20 µM; MIC (Range) ([1]; clinical isolates, 16 h): 16 to 32 µg/mL; MIC (Range) [2]: 16 to 32 µg/mL; MIC [3]: 16 µg/mL (≈ 10.5 µM); MIC ([4]; isolate Candida tropicalis 8): 8 µg/mL (≈ 5.25 µM); MIC ([4]; isolate Candida tropicalis 9): 8 µg/mL (≈ 5.25 µM); MIC ([4]; isolate Candida tropicalis 10): 8 µg/mL (≈ 5.25 µM); critical micellar concentration (CMC) [5]: 5.1 ± 0.8 µM
